Assay results published in ChEMBL document CHEMBL1201862, “PubChem BioAssay data set” (2004).
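Five compound concentrations were applied to cells in 96-well plates for 48 hours; endpoints were derived by simple linear interpolation of the resulting dose-response curve. GI50 marks 50% less growth.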 Activity calls are given as the source filed them. No stated cut-off is given here; in the data, active = GI50 up to about 1.1 µM and inactive = higher.

Legend:
Assay in all cases: NCI anticancer screen, dose series, 48 h
SN12C = system: SN12C
UACC-62 = system: UACC-62
M14 = system: M14
MOLT-4 = system: MOLT-4
ACHN = system: ACHN
SNB-19 = system: SNB-19
SR = system: SR
SW-620 = system: SW-620
SK-MEL-2 = system: SK-MEL-2
OVCAR-4 = system: OVCAR-4
UACC-257 = system: UACC-257
SF-295 = system: SF-295
786-0 = system: 786-0
SK-MEL-28 = system: SK-MEL-28
RPMI-8226 = system: RPMI-8226
MDA-MB-231 = system: MDA-MB-231
DU-145 = system: DU-145
NCI/ADR-RES = system: NCI/ADR-RES
MDA-N = system: MDA-N
Hs-578T = system: Hs-578T

Row | Structure (SMILES) | GI50 (SN12C) | GI50 (UACC-62) | GI50 (M14) | GI50 (MOLT-4) | GI50 (ACHN) | GI50 (SNB-19) | GI50 (SR) | GI50 (SW-620) | GI50 (SK-MEL-2) | GI50 (OVCAR-4) | GI50 (UACC-257) | GI50 (SF-295) | GI50 (786-0) | GI50 (SK-MEL-28) | GI50 (RPMI-8226) | GI50 (MDA-MB-231) | GI50 (DU-145) | GI50 (NCI/ADR-RES) | GI50 (MDA-N) | GI50 (Hs-578T)
1 | COC1=C(N)C(=O)c2nc(C)ccc2C1=O | 1.82 µM (inactive) | 1.75 µM (inactive) | 1.88 µM (inactive) | 5.85 µM (inactive) | 1.77 µM (inactive) | 1.91 µM (inactive) | 2.94 µM (inactive) | 1.87 µM (inactive) | 1.74 µM (inactive) | 1.89 µM (inactive) | 1.47 µM (inactive) | 1.79 µM (inactive) | 1.98 µM (inactive) | 1.82 µM (inactive) | 5.21 µM (inactive) |  |  |  |  | 
2 | COc1ccc2cc(C(=O)NCCCNC(=O)c3ccc4c(OC)c(OC)ccc4c3)ccc2c1OC | > 100 µM (inactive) | > 100 µM (inactive) |  | > 100 µM (inactive) | > 100 µM (inactive) | > 100 µM (inactive) | > 100 µM (inactive) | > 100 µM (inactive) | > 100 µM (inactive) | > 100 µM (inactive) | > 100 µM (inactive) | > 100 µM (inactive) | > 100 µM (inactive) | > 100 µM (inactive) | > 100 µM (inactive) | > 100 µM (inactive) | > 100 µM (inactive) | > 100 µM (inactive) | > 100 µM (inactive) | 
3 | CN(C)CCNC(=O)c1cccc2ccc(-c3ccc(Br)cc3)nc12 | 2.33 µM (inactive) | 1.8 µM (inactive) |  | 0.333 µM (active) |  | 4.14 µM (inactive) |  | 1.17 µM (inactive) | 3.09 µM (inactive) | 2.76 µM (inactive) | 2.8 µM (inactive) | 3.76 µM (inactive) |  | 3.76 µM (inactive) | 1.29 µM (inactive) |  |  | 1.8 µM (inactive) |  | 
4 | C/C(=N\NC(=S)N1CCN(C2CCCCCC2)CC1)c1ccccn1 | 0.111 µM (active) | < 0.012 µM (active) | 0.01 µM (active) | 0.01 µM (active) | 0.145 µM (active) | 1.71 µM (inactive) | 0.01 µM (active) | 0.01 µM (active) | 0.481 µM (active) | 0.041 µM (active) | 0.01 µM (active) | < 0.0476 µM (active) |  | 0.238 µM (active) | 0.01 µM (active) | 1.31 µM (inactive) | 1.02 µM (active) | 0.01 µM (active) |  | 1.49 µM (inactive)
5 | c1cc2c(s1)-c1sccc1C21OCCO1 | > 100 µM (inactive) | 19.5 µM (inactive) | > 100 µM (inactive) | > 100 µM (inactive) | > 100 µM (inactive) | > 100 µM (inactive) | > 100 µM (inactive) |  | 60 µM (inactive) | > 100 µM (inactive) | 45.6 µM (inactive) | > 100 µM (inactive) | > 100 µM (inactive) | > 100 µM (inactive) | 81.7 µM (inactive) | > 100 µM (inactive) | > 100 µM (inactive) | > 100 µM (inactive) | > 100 µM (inactive) | 
6 | CCCCC(C)/C=C/C(O)=C1\C(=O)O/C(=C\C(=O)O)C1=O (stereo not given) | > 100 µM (inactive) | > 100 µM (inactive) | > 100 µM (inactive) | > 100 µM (inactive) | > 100 µM (inactive) | > 100 µM (inactive) | > 100 µM (inactive) | > 100 µM (inactive) | > 100 µM (inactive) | > 100 µM (inactive) | > 100 µM (inactive) | > 100 µM (inactive) | > 100 µM (inactive) | > 100 µM (inactive) | > 100 µM (inactive) |  |  |  |  | 
7 | COc1ccc(C2C=C(c3ccc(C)cc3)N(c3ccc(OC)cc3[N+](=O)[O-])C3C(=O)OC(=O)C23)c(OC)c1 (stereo not given) |  | 49.4 µM (inactive) | 34.3 µM (inactive) | 32.6 µM (inactive) | 16 µM (inactive) | 47 µM (inactive) | 20.1 µM (inactive) | 28.6 µM (inactive) | 24 µM (inactive) | 62.5 µM (inactive) | 77.6 µM (inactive) | 43.9 µM (inactive) | 30.8 µM (inactive) | > 100 µM (inactive) | 22 µM (inactive) | 53.2 µM (inactive) |  |  |  | 22.5 µM (inactive)
8 | O=C(O)COc1ccc(C(=O)/C(SS/C(C(=O)c2ccc(OCC(=O)O)c(Cl)c2Cl)=C2\C=C(c3ccc(Br)cc3)SS2)=C2/C=C(c3ccc(Br)cc3)SS2)c(Cl)c1Cl | 6.32 µM (inactive) | 4.55 µM (inactive) | 11.1 µM (inactive) | 3.44 µM (inactive) | 4.58 µM (inactive) | 5.55 µM (inactive) |  | 6.73 µM (inactive) | 6.61 µM (inactive) | 4.51 µM (inactive) | 25.3 µM (inactive) | 5.58 µM (inactive) | 3.87 µM (inactive) | 24.8 µM (inactive) | 4.73 µM (inactive) |  | 16.8 µM (inactive) |  |  | 3.57 µM (inactive)
9 | O=C(NC1C(=O)NC(CCc2ccccc2)NC1=O)OCc1ccccc1 (stereo not given) | > 100 µM (inactive) | > 100 µM (inactive) | > 100 µM (inactive) | > 100 µM (inactive) | > 100 µM (inactive) | > 100 µM (inactive) | > 100 µM (inactive) | > 100 µM (inactive) |  | > 100 µM (inactive) | > 100 µM (inactive) | > 100 µM (inactive) | > 100 µM (inactive) | > 100 µM (inactive) | > 100 µM (inactive) | > 100 µM (inactive) | > 100 µM (inactive) | > 100 µM (inactive) |  | 
